# Experimental data from patent publication US20250115642A1, “PEPTIDE HAVING ANTIBACTERIAL, ANTI-INFLAMMATORY OR TISSUE REGENERATION ABILITY AND USE THEREOF” (priority 2022, published 2025).
# How the values were obtained:
# phosphorylated NF-κB = test: Western blot of pNFkB in LPS-treated Raw264.7 cells; type: cell-based, mouse
# Method: (§1) Raw264.7 cells were purchased from ATCC (American Type Culture Collection) and used in the experiment. Raw264.7 cells were cultured in a CO2 incubator at 37° C. supplied with 5% CO2 and 95% air using DMEM (Dulbecco's modified Eagle medium) medium supplemented with 10% FBS and 100 units/ml antibiotics (penicillin-streptomycin).
# (§2) Raw264.7 cells were treated with 200 μM of the peptide having the amino acid sequence of SEQ ID NO: 1 for 30 minutes, and then treated with 1 μg/ml LPS (lipopolysaccharide, Merck, L3024). After 8 hours, the treated cells were collected, protease inhibitor cocktail and phosphatase inhibitor cocktail were added to Radioimmunoprecipitation assay buffer (RIPA buffer solution, Thermo Fisher, 89900), and the cells were treated to lyse the cells. After centrifuging the cell lysate and collecting the supernatant, the concentration of the cell lysate was measured using a bicinchoninic acid assay (BCA assay, Thermo Fisher, 23227), and RIPA buffer solution was added thereto to prepare the cell lysate to a final concentration of 5 mg/mL. Then, it was mixed with a buffer solution including 1M Tris-HCl (pH 6.8), 50% glycerol, and 10% SDS in a 4:1 ratio, and then sodium dodecyl sulfate-poly acrylamide gel electrophoresis (SDS-PAGE) was performed. […]
# [1] = system: artificial biofilm of Aggregatibacter actinomycetemcomitans and Porphyromonas gingivalis; test: Antibacterial activity in artificial biofilm on titanium disk (LIVE/DEAD staining); type: cell-based; conditions: 24 hours after inoculation; 50 μg/ml = 29 μM
# Method: Periodontitis-causing bacteria exist in the oral cavity in a form of a biofilm, and thus in order to imitate this, an artificial biofilm was created on the surface of a titanium disk using A. a. (Aggregatibacter actinomycetemcomitans) and P. g. (Porphyromonas gingivalis) bacteria. Saliva and bacteria were mixed on a titanium disk, placed in BHI liquid medium, and cultured in an anaerobic incubator at 37° C. After 72 hours, 50 μg/ml (=29 μM), 100 μg/ml (=58 μM), 250 μg/ml (=144 μM), and 500 μg/ml (=288 μM) peptides and 1 μg/ml minocycline as a positive control were inoculated. 24 hours later after inoculation, a titanium disk with biofilm formed on the surface was obtained and the biofilm was stained using the Filmtracer LIVE/DEAD Biofilm Viability Kit (Thermo Fisher, L10316). Live bacteria are stained green, and dead bacteria are stained red. The titanium disk was observed using a confocal scanning fluorescence microscope.
# TNF-α = test: ELISA of TNF-α secreted by LPS-treated THP-1 macrophages; type: cell-based, human; conditions: 1 μg/ml LPS, 200 μM peptide, 24 hours, compared with 20 ng/ml IL-4
# Method: (§3) Anti-inflammatory activity was verified using human monocyte cell lines (THP-1, ATCC, TIB-202). In the case of monocyte cell lines, PMA (Phorbol 12-myristate 13-acetate, Merck, P1585) was inoculated to differentiate monocytes into macrophages, and then treated with 1 μg/ml LPS (lipopolysaccharide, Merck, L3024), an inflammation inducer. […] The amount of pro-inflammatory cytokines IL-6 (R&D system, D6050) and TNF-α secreted by cells present in the medium was confirmed through ELISA (enzyme-linked immunosorbent assay).
# Raw264.7 cells = test: Cell penetration ability at the cellular level (confocal microscopy); type: cell-based, mouse; conditions: Rhodamine B labeled peptide, 50, 100 and 200 μM, 1 hour
# Method: Raw264.7 cells were distributed 3×10^4 each into a 4-well chamber and cultured in DMEM medium for 24 hours to stabilize the cells. After 24 hours, fluorescently labeled peptide was added to the medium at concentrations of 50, 100, and 200 μM. After 1 hour of peptide treatment, a degree of penetration of the peptide into cells was observed using a confocal scanning fluorescence microscope. Cell nuclei were stained using 4′,6-diamidino-2-phenylindole (DAPI, Thermo Fisher, D1306). DIC represents the case observed under a general microscope, Nuceli represents the nucleus of a cell, Peptide represents the degree of penetration of a peptide bound to rhodamine B, and MERGE represents an image that overlaps images of DIC, Nuclei, and the penetrated peptide.
# phosphorylated IκBα = test: Western blot of plkBa in LPS-treated Raw264.7 cells; type: cell-based, mouse
# Method: as §1, §2
# [2] = system: Aggregatibacter actinomycetemcomitans; test: Inhibiting growth of periodontitis-causing bacteria (absorbance 600 nm); type: cell-based; conditions: Aa
# Method: (§4) To evaluate the antibacterial activity, representative periodontitis-causing bacteria, Aggregatibacter actinomycetemcomitans and Porphyromonas gingivalis, were used. Each bacterium was inoculated into BHI (brain heart infusion) liquid medium and cultured in an anaerobic incubator at 37° C. and 120 rpm for 48 hours. After incubation, the peptide having the amino acid sequence of SEQ ID NO: 1 was treated at 100 μM, 250 μM, and 500 μM. As a positive control, minocycline (Merck, M9511) was inoculated at 500 ng/ml, and then 24 hours later, the absorbance was measured at 600 nm using a spectrophotometer to confirm a degree of bacterial growth.
# Porphyromonas gingivalis = test: as above; type: cell-based; conditions: Pg
# Method: as §4
# IL-6 = test: ELISA of IL-6 secreted by LPS-treated THP-1 macrophages; type: cell-based, human; conditions: 1 μg/ml LPS, 200 μM peptide, 24 hours, compared with 20 ng/ml IL-4
# Method: as §3
# [3] = 200 μM peptide for 30 minutes, then 1 μg/ml LPS, 8 hours
sequence,measurement,setting,value
"GKCSTRGRKSSRRKK (PEPTIDE HAVING ANTIBACTERIAL, …ON OR TISSUE …ON) [SEQ ID NO: 1, 15-mer peptide having antibacterial, anti-inflammatory and cell penetrating ability]",expression of pNFκB,phosphorylated NF-κB; [3],suppressed
same,effect on the expression of pNFκB,"phosphorylated NF-κB; only the peptide, without LPS",no effect
same,concentration at which killed bacteria (red) were observed in biofilm,[1],≥ 50 µg/mL
same,TNF-α value,TNF-α,lowered to a similar level as when treated with IL-4
same,concentration dependence of fluorescence intensity in cells,Raw264.7 cells,"as the concentration of peptide increased, the intensity of fluorescence also increased"
same,fluorescence of rhodamine B in cells,Raw264.7 cells,fluorescence of rhodamine B (red) could be confirmed
same,expression of plkBa,phosphorylated IκBα; [3],suppressed
same,effect on the expression of plkBa,"phosphorylated IκBα; only the peptide, without LPS",no effect
same,survival rate of bacteria,"[2]; at 250 μM or more, 24 hours",less than or equal to 50%
same,survival rate compared to minocycline,[2]; peptide 500 μM vs minocycline 500 ng/ml,"higher than when treated with minocycline 500 ng/ml, but showed a similar effect"
same,effect compared to minocycline,"Porphyromonas gingivalis; all concentration ranges (100, 250, 500 μM) vs minocycline 500 ng/ml",better effect than minocycline
same,survival rate of bacteria,"Porphyromonas gingivalis; at 100 μM or more, 24 hours",less than or equal to 50%
same,IL-6 value,IL-6,lowered to a similar level as when treated with IL-4
